Source: PMC4738305, “Metabolism and Disposition of Aditoprim in Swine, Broilers, Carp and Rats” (Scientific Reports, 2016)

Tests used:
[1] = Tissue distribution and elimination of total radioactivity (total residues) after oral ^3H-ADP for 7 d; format: in vivo, broilers; parameters: Elimination kinetics Ke: unit not given here; details: for Elimination kinetics Ke / Elimination kinetics t1/2 / Concentrations of total residues: broilers; for Elimination kinetics Ke / Elimination kinetics t1/2: 5 mg/kg b.w. 7 days
Procedure: (§1) (0.1 Ci/g) through oral gavage for 7 consecutive days. All the animals were housed on the basis of their group in the cages or aquaria throughout the whole study period. A group of animals was slaughtered through exsanguination under diethyl ether inhalation of anesthesia in the period of 6 h, 1, 3, 7, 14, and 21 d after the administration. The blood samples were immediately collected into the heparinized tubes and was centrifuged at 1920 × g at 4 °C for 10 min to obtain the plasma. The tissues from the heart, liver, spleen, lung, kidney, craw (broilers), stomach, intestine, fat, skin, muscle, thymus, pancreas, bile, bladder, hair (scale for carp), genital gland, adrenal glands, swim bladder (carp), brain, lymph, and bursa (broilers) were carefully excised and collected. The tissues were thoroughly rinsed with the deionized water to remove the residuary blood, blotted to dryness, and finally to perform the homogenization. In order to avoid cross-contamination the dissecting instruments were washed during the tissue procurements. The blank tissues were collected in order to provide control matrices. The total radioactivity levels in each sample were determined through LSC. The samples extracted from the plasma, bile, and tissues of the liver, kidney, muscle, and fat/skin were analyzed through LC/MS-IT-TOF and v. ARC radiometric detection for metabolite profiling.
(§2) Measurements of the total radioactivity in each sample were conducted by Packard Tri-Carb 2900 TR liquid scintillation counter (PerkinElmer Life and Analytical Sciences). The detection time was 10 min for two cycles. The scintillation counter data were automatically corrected for counting efficiency by instrument-stored quench curve which was drawn with a series of sealed quenched […] standards. The actual radioactivity of each sample was calculated by subtracting the background value form the mean radioactivity in two blank samples. All the samples were analyzed in duplicate if the sample size allowed this. If the results were differed by more than 10% from the mean value, the samples were reanalyzed. The samples with LSC counts less than 2-fold of the level of the running background were considered to contain insufficient radioactivity for reliable quantification.
(§3) Aliquots of liquid samples (urine, plasma, bile and raised water, 200 μL) were mixed with 10 mL of Ultima Gold^TM scintillation fluid for the direct analysis by LSC. Aliquots of solid samples (feces and tissues, 200 mg) were digested overnight with 2 mL tissue solubilizer at 50 °C in a shaking water bath, followed by adding 200 μL of 0.1 mol/L EDTA-Na and 200 μL of 30% H2O2, and was bathed at 50 °C for 2 h to bleach. The obtained transparent liquid were mixed with 10 mL of scintillation fluid and finally were counted by LSC. The digestion efficiency was determined by using the blank samples spiked with ^3 H standard for digestion, and the measured radioactivity content in the digested samples were adjusted by using the digestion efficiency values.
(§4) The concentrations of ADP and/or its metabolites were analyzed by using the following equation: C = L/(2.22 × 10^9 × RM), where C is the concentration of ADP or/and its metabolites (mg/kg), L is the LSC count (dpm), R is the specific activity of the administered dose (0.1 Ci/g), and M is the weight or volume of samples (kg or L). The results are expressed as mean ± SD. The elimination kinetics of terminal phase for ADP and its metabolites were conducted by using the WinNonlin linear regression program (Pharsight corporation, Statistical consultants, Inc., Kentucky, USA).

[2] = as above; format: in vivo, swine
Procedure: as §1, §2, §3, §4

[3H]c1c(Cc2cnc(N)nc2N)cc(OC)c(N(C)C)c1OC [^3H-ADP]
concentration of total radioactivity ([1]; broilers bile, within 6 h after oral ^3H-ADP for 7 d): 25.2 ± 8.5 mg/kg | Elimination kinetics Ke ([1]; Bile): 0.71 | Elimination kinetics t1/2 ([1]; Bile): 25.9 h | Elimination kinetics Ke ([1]; Blood): 0.31 | Elimination kinetics t1/2 ([1]; Blood): 54 h | Elimination kinetics Ke ([1]; Brain): 0.47 | Elimination kinetics t1/2 ([1]; Brain): 35.5 h | Elimination kinetics Ke ([1]; Bursa of Fabricius): 0.33 | Elimination kinetics t1/2 ([1]; Bursa of Fabricius): 50.6 h | Elimination kinetics Ke ([1]; Fat): 0.42 | Concentrations of total residues ([1]; Fat, time 0.25, 5 mg/kg b.w. 7 days): 0.78 ± 0.32 mg/kg | Concentrations of total residues ([1]; Fat, time 1, 5 mg/kg b.w. 7 days): 0.43 ± 0.05 mg/kg | Concentrations of total residues ([1]; Fat, time 3, 5 mg/kg b.w. 7 days): 0.24 ± 0.02 mg/kg | Concentrations of total residues ([1]; Fat, time 7, 5 mg/kg b.w. 7 days): 0.04 ± 0.01 mg/kg | Elimination kinetics Ke ([1]; Feathers): 0.28 | Elimination kinetics t1/2 ([1]; Feathers): 60 h | Concentrations of total residues ([1]; Feathers, time 0.25, 5 mg/kg b.w. 7 days): 0.85 ± 0.17 mg/kg | Concentrations of total residues ([1]; Feathers, time 1, 5 mg/kg b.w. 7 days): 0.53 ± 0.12 mg/kg | Concentrations of total residues ([1]; Feathers, time 3, 5 mg/kg b.w. 7 days): 0.27 ± 0.03 mg/kg | Concentrations of total residues ([1]; Feathers, time 7, 5 mg/kg b.w. 7 days): 0.10 ± 0.01 mg/kg | Elimination kinetics Ke ([1]; Glandular stomach): 0.59 | Elimination kinetics t1/2 ([1]; Glandular stomach): 28.1 h | Concentrations of total residues ([1]; Glandular stomach, time 1, 5 mg/kg b.w. 7 days): 1.54 ± 0.36 mg/kg | Concentrations of total residues ([1]; Glandular stomach, time 3, 5 mg/kg b.w. 7 days): 0.27 ± 0.05 mg/kg | Concentrations of total residues ([1]; Glandular stomach, time 7, 5 mg/kg b.w. 7 days): 0.04 ± 0.00 mg/kg | Elimination kinetics Ke ([1]; Heart): 0.29 | Elimination kinetics t1/2 ([1]; Heart): 57.8 h | Elimination kinetics Ke ([1]; Kidney): 0.30 | Elimination kinetics Ke ([1]; Large Intestine): 0.90 | Elimination kinetics t1/2 ([1]; Large Intestine): 18.5 h | Concentrations of total residues ([1]; Large Intestine, time 0.25, 5 mg/kg b.w. 7 days): 6.29 ± 1.45 mg/kg | Concentrations of total residues ([1]; Large Intestine, time 1, 5 mg/kg b.w. 7 days): 1.25 ± 0.23 mg/kg | Concentrations of total residues ([1]; Large Intestine, time 3, 5 mg/kg b.w. 7 days): 0.12 ± 0.03 mg/kg | Concentrations of total residues ([1]; Large Intestine, time 7, 5 mg/kg b.w. 7 days): 0.01 ± 0.00 mg/kg | Elimination kinetics Ke ([1]; Liver): 0.21 | Elimination kinetics Ke ([1]; Lung): 0.61 | Elimination kinetics t1/2 ([1]; Lung): 27.4 h | Elimination kinetics Ke ([1]; Maw): 0.53 | Elimination kinetics t1/2 ([1]; Maw): 31.4 h | Elimination kinetics Ke ([1]; Muscle): 0.23 | Concentrations of total residues ([1]; Muscle, time 0.25, 5 mg/kg b.w. 7 days): 1.10 ± 0.44 mg/kg | Concentrations of total residues ([1]; Muscle, time 1, 5 mg/kg b.w. 7 days): 0.23 ± 0.10 mg/kg | Elimination kinetics Ke ([1]; Muscular stomach): 0.46 | Elimination kinetics t1/2 ([1]; Muscular stomach): 36.5 h | Concentrations of total residues ([1]; Muscular stomach, time 0.25, 5 mg/kg b.w. 7 days): 1.92 ± 0.57 mg/kg | Concentrations of total residues ([1]; Muscular stomach, time 1, 5 mg/kg b.w. 7 days): 0.69 ± 0.10 mg/kg | Concentrations of total residues ([1]; Muscular stomach, time 3, 5 mg/kg b.w. 7 days): 0.25 ± 0.03 mg/kg | Concentrations of total residues ([1]; Muscular stomach, time 7, 5 mg/kg b.w. 7 days): 0.04 ± 0.01 mg/kg | Elimination kinetics Ke ([1]; Pancreas): 0.57 | Elimination kinetics t1/2 ([1]; Pancreas): 29 h | Elimination kinetics Ke ([1]; Skin): 0.43 | Elimination kinetics t1/2 ([1]; Skin): 38.6 h | Concentrations of total residues ([1]; Skin, time 0.25, 5 mg/kg b.w. 7 days): 1.78 ± 0.42 mg/kg | Concentrations of total residues ([1]; Skin, time 1, 5 mg/kg b.w. 7 days): 0.74 ± 0.11 mg/kg | Concentrations of total residues ([1]; Skin, time 3, 5 mg/kg b.w. 7 days): 0.25 ± 0.02 mg/kg | Concentrations of total residues ([1]; Skin, time 7, 5 mg/kg b.w. 7 days): 0.05 ± 0.01 mg/kg | Elimination kinetics Ke ([1]; Small Intestine): 0.75 | Elimination kinetics t1/2 ([1]; Small Intestine): 22.1 h | Concentrations of total residues ([1]; Small Intestine, time 0.25, 5 mg/kg b.w. 7 days): 8.23 ± 0.93 mg/kg | Concentrations of total residues ([1]; Small Intestine, time 1, 5 mg/kg b.w. 7 days): 4.06 ± 1.32 mg/kg | Concentrations of total residues ([1]; Small Intestine, time 3, 5 mg/kg b.w. 7 days): 0.29 ± 0.04 mg/kg | Concentrations of total residues ([1]; Small Intestine, time 7, 5 mg/kg b.w. 7 days): 0.04 ± 0.00 mg/kg | Elimination kinetics Ke ([1]; Spleen): 0.26 | Elimination kinetics t1/2 ([1]; Spleen): 63.1 h | Ke of total residues ([2]; swine Adrenal): 0.28 | Ke of total residues ([2]; swine Bile): 0.71 | Ke of total residues ([2]; swine Bladder): 0.50 | Ke of total residues ([2]; swine Blood): 0.48 | Ke of total residues ([2]; swine Clothing hair): 0.17 | Ke of total residues ([2]; swine Fat): 0.20 | Ke of total residues ([2]; swine Heart): 0.29 | Ke of total residues ([2]; swine Kidney): 0.21 | Ke of total residues ([2]; swine Large Intestine): 0.47 | Ke of total residues ([2]; swine Liver): 0.16 | Ke of total residues ([2]; swine Lung): 0.28 | Ke of total residues ([2]; swine Lymph): 0.46 | Ke of total residues ([2]; swine Muscle): 0.41 | Ke of total residues ([2]; swine Pancreas): 0.27 | Ke of total residues ([2]; swine Skin): 0.42 | Ke of total residues ([2]; swine Small Intestine): 0.54 | Ke of total residues ([2]; swine Spleen): 0.20 | Ke of total residues ([2]; swine Stomach): 0.52 | Ke of total residues ([2]; swine Thymus): 0.37
